Molecules are shown by their SMILES. pKi: −log10 of the molar value. Read-outs that look alike come from different tables or passages of the source.

In this assay the target is human RIP1 kinase domain (2-375) (Homo sapiens (Human), UniProt Q13546). Conditions: 50 nM enzyme, 50 μM ATP, 2 hours incubation.
[1] abbreviates: RIP1 kinase inhibition, tight-binding apparent Ki.

Sequence of human RIP1 kinase domain (2-375) (Q13546 2-375): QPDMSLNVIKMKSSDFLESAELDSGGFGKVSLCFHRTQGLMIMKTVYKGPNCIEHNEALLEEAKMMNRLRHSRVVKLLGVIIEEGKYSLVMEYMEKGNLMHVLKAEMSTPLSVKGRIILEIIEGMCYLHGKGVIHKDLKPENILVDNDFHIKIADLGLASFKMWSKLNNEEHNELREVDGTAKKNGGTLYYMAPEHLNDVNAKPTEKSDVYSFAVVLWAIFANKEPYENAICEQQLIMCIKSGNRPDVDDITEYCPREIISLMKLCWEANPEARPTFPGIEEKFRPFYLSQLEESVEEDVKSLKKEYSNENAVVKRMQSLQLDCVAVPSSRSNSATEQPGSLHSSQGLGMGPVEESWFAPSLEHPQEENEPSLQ
Protocol: RIP1 Kinase Inhibition Assays (Biochemical Assay)
The ability of the receptor interacting protein kinase (RIPK1) to catalyze the hydrolysis of adenosine-5′-triphosphate (ATP) is monitored using the Transcreener ADP (adenosine-5′-diphosphate) assay (BellBrook Labs). Purified human RIP1 kinase domain (2-375) (50 nM) derived from a baculovirus-infected insect cell expression system is incubated with test compounds for 2 hours in 50 mM Hepes buffer (pH 7.5) containing 30 mM MgCl2, 1 mM dithiothreitol, 50 μM ATP, 0.002% Brij-35, and 0.5% dimethyl sulfoxide (DMSO). […] The tracer bound to the antibody is displaced by the ADP generated during the RIP1K reaction, which causes a decrease in fluorescence polarization that is measured by laser excitation at 633 nm with a FP microplate reader M1000. Fractional activity was plotted against test article concentration. Using Genedata Screener software (Genedata; Basel, Switzerland), the data were fit to the tight-binding apparent inhibition constant (Ki^app) Morrison equation [Williams, J. W. and Morrison, J. F. (1979) The kinetics of reversible tight-binding inhibition. […] The following equation was used to calculate fractional activity and Ki^app:
[formula] where [E]T and [I]T are the total concentrations of active enzyme and test article, respectively.

For the compound `CC1(C(=O)c2nc3n(n2)[C@H](c2ccccc2)C[C@@H]3F)COC1` (single isomer, unassigned) [Example 54], the pKi (tight-binding apparent inhibition constant (Ki app, Morrison equation)) is 7.55. Take `O=C(c1nc2n(n1)[C@H](c1ccccc1)C[C@@H]2F)C1(CO)CC1` (single isomer, unassigned) [Example 72]: the pKi under setting [1] is 8.31. With `O=C(c1nc2n(n1)[C@H](c1ccccc1)C[C@@H]2O)C1CC1` (single isomer, unassigned) [Example 87], the pKi under setting [1] is 7.89.

Source of the values: patent US11098058B2, “Bicyclic ketone compounds and methods of use thereof” (Genentech, Inc., priority 2017, dated 2021).
